Test results: patent publication EP0169405A2, “Use of substituted pyrimido (5,4-d) pyrimidines” (BOEHRINGER INGELHEIM KG, priority 1984, dated 1986)
Read-outs that look alike come from different tables or passages of the source.

Experiments:
[1] = tested on: Störung des Kurzzeitgedächtnisses; assay: Reversal of scopolamine-induced disturbance of short-term memory; type: in vivo; conditions: po; scopolamine-induced memory disturbance is reversed; read-out: niedrigste wirksame Dosis (wirksam ab)
From the text: In der Formel I bedeutet • ^R1 einen Cl-C3-Alkoxy-(C2-C3-alkyl)rest, • ^R2 einen C2-C6-Hydroxyalkylrest oder einen C3-Dihydroxy- alkylrest, • ^R3 einen C1-C3-Alkoxy-(C2-C3-alkyl) rest oder einen C2-C3-Hydroxyalkylrest, • R4 einen Dialkylaminorest, wobei jeder Alkylrest 1 bis 6 C-Atome enthalten kann, die Diallyl- oder Di-(methoxyethyl)-aminogruppe oder einen gegebenenfalls durch eine Methylgruppe substituierten Pyrrolidino-, Piperidino-, Hexamethylenamino-, 1', 2', 5', 6'-Tetrahydropyridino-, Morpholino-, Thiomorpholino- oder 1-Oxidothiomorpholinoring. Die Verbindungen können als freie Basen oder als physiologisch verträgliche Säureadditionssalze mit anorganischen oder organischen Säuren vorliegen. Es wurde nun in tierexperimentellen Untersuchungen gefunden, daß die Verbindungen überraschenderweise besonders zur Beeinflussung eingeschränkter zerebraler Leistungsfähigkeit geeignet sind. Die folgenden Ergebnisse stützen diese Aussage: • 1. Durch gabe des muskarinen cholinergen Antagonisten Scopolamin wird eine Störung des Kurzzeitgedächtnisses bzw. des Übergangs von Inhalten des Kurzzeit- in das sogenannte Langzeitgedächnis erzeugt. Diese Einschränkung wird durch die neuen Verbindungen aufgehoben. […]

[2] = Acute toxicity in the mouse (LD50); conditions: in vivo

SMILES | minimal effective dose [1] [mg/kg] | LD50 ([2]; iv, read-out: i.v. LD50) [mg/kg] | LD50 ([2]; po, read-out: p.o. LD50) [mg/kg]
COc1ccc(C(=O)N2CCCC2=O)cc1 [Aniracetam] | 50 | – | –
NC(=O)CN1CCCC1=O [Piracetam] | 150 | – | –
CCN(CC)c1nc(N(CCO)CCOC)nc2c(N(CC)CC)nc(N(CCO)CCOC)nc12 [Verbindung (B)] | – | 133 | > 3000
